Test system: H1 influenza virus A/Puerto Rico/8/1934 (PR8)
Set-up: species or system BALB/c mice
Conditions: mouse, in vivo

## CCOC(=O)C1=C[C@@H](OC(CC)CC)[C@H](NC(C)=O)[C@@H](N)C1 [Tamiflu]
  protection: completely ineffective in protection
